Measured values as given in ChEMBL document CHEMBL5537197, “Discovery of Novel Coumarin-quinolinium Derivatives as Pan-KRAS Translation Inhibitors by Targeting 5'-UTR RNA G-Quadruplexes” (J Med Chem, 2024).
Calls of active or inactive are those of the source. The calls are words filed in the database; no cut-off is given here.

Legend:
[1] = tested on: PANC-1; test: Cytotoxicity against human PANC-1 cells harboring KRAS G12D mutant assessed as cell growth inhibition incubated for 24 hrs by MTT assay; type: functional, cell-based; conditions: PANC-1, 24 h
[2] = tested on: MIA PaCa-2; test: Cytotoxicity against human MIA PaCa-2 cells harboring KRAS G12C mutant assessed as cell growth inhibition incubated for 24 hrs by MTT assay; type: functional, cell-based; conditions: MIA PaCa-2, 24 h
[3] = Cytotoxicity against human PANC-1 cells […] assessed as cell growth inhibition incubated for 24 hrs by MTT assay; type: functional, cell-based; conditions: PANC-1, 24 h
[4] = tested on: NCM460; test: Cytotoxicity against human NCM460 cells harboring wild-type KRAS assessed as cell growth inhibition incubated for 24 hrs by MTT assay; type: functional, cell-based; conditions: NCM460, 24 h
[5] = biological target: GTPase KRas (Homo sapiens) (UniProt P01116); test: Inhibition of KRAS in human PANC-1 cells at 2.5 uM incubated for 24 hrs by Western blot analysis; type: cell-based
[6] = biological target: GTPase KRas (Homo sapiens) (UniProt P01116); test: Inhibition of KRAS in human MIA PaCa-2 cells at 2.5 uM incubated for 24 hrs by Western blot analysis; type: cell-based

Chain of GTPase KRas (Homo sapiens) (P01116 whole entry, looked up): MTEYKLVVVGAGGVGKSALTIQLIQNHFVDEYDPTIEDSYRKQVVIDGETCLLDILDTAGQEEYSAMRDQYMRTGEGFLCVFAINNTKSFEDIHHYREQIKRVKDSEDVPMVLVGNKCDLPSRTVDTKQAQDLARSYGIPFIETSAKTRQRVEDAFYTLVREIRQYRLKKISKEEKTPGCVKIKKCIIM

SMILES | IC50 [1] | IC50 [2] | IC50 [3] | IC50 [4] | inhibition [5] | inhibition [6]
CCN(CC)c1ccc2cc(/C=C/c3ccc4cc(F)c(N5CCN(C(C)=O)CC5)cc4[n+]3C)c(=O)oc2c1 | 32.6 µM | 5.6 µM | > 40 µM | > 40 µM |  | 
CCN(CC)c1ccc2cc(/C=C/c3cc(N4CCN(C)CC4)c4cc(F)c(NCc5cn(CCCN(C)C)nn5)cc4[n+]3C)c(=O)oc2c1 | 35.2 µM | > 40 µM | > 40 µM | > 40 µM |  | 
CCN(CC)c1ccc2cc(/C=C/c3ccc4cc(F)c(N5CCN(Cc6cn(CCCN7CCOCC7)nn6)CC5)cc4[n+]3C)c(=O)oc2c1 | > 40 µM | 23.4 µM | > 40 µM | > 40 µM |  | 
CCN(CC)c1ccc2cc(/C=C/c3ccc4cc(F)c(N5CCN(Cc6cn(CCCN7CCCC7)nn6)CC5)cc4[n+]3C)c(=O)oc2c1 | 19.8 µM | > 40 µM | 13 µM | > 40 µM |  | 
CCN(CC)c1ccc2cc(/C=C/c3ccc4cc(F)c(NCCO)cc4[n+]3C)c(=O)oc2c1 | 38.2 µM | 7.2 µM | > 40 µM | > 40 µM |  | 
CCN1CCN(c2ccc(Nc3cc4c(ccc(/C=C/c5cc6ccc(N(CC)CC)cc6oc5=O)[n+]4C)cc3F)cc2)CC1 | 15.2 µM | 8.8 µM | > 40 µM | > 40 µM |  | 
CCN(CC)c1ccc2cc(/C=C/c3ccc4cc(F)c(NCCN5CCCCC5)cc4[n+]3C)c(=O)oc2c1 | 5.8 µM | 43 µM | > 40 µM | > 40 µM | Active | Active
CCN(CC)c1ccc2cc(/C=C/c3ccc4cc(F)c(Nc5ccc(N6CCN(C)CC6)nc5)cc4[n+]3C)c(=O)oc2c1 | > 40 µM | 9 µM | > 40 µM | 10.4 µM |  | 
CCN(CC)c1ccc2cc(/C=C/c3ccc4cc(F)c(N5CCCCC5)cc4[n+]3C)c(=O)oc2c1 | 20.6 µM | 11.4 µM | > 40 µM | > 40 µM |  | 
CCN(CC)c1ccc2cc(/C=C/c3ccc4cc(F)c(N5CCN(C(=O)C(C)C)CC5)cc4[n+]3C)c(=O)oc2c1 | 39.6 µM | 3.4 µM | > 40 µM | > 40 µM |  | 
CCN(CC)c1ccc2cc(/C=C/c3cc(N4CCN(C)CC4)c4cc(F)c(NCc5cn([C@@H]6O[C@H](CO)[C@@H](O)[C@H](O)[C@H]6O)nn5)cc4[n+]3C)c(=O)oc2c1 | > 40 µM | > 40 µM | > 40 µM | > 40 µM |  | 
CCN(CC)c1ccc2cc(/C=C/c3ccc4cc(F)c(N5CCN(Cc6cn([C@@H]7O[C@H](CO)[C@@H](O)[C@H](O)[C@H]7O)nn6)CC5)cc4[n+]3C)c(=O)oc2c1 | > 40 µM | > 40 µM | > 40 µM | > 40 µM |  | 
CCN(CC)c1ccc2cc(/C=C/c3ccc4cc(F)c(NCc5ccccc5C)cc4[n+]3C)c(=O)oc2c1 | 5.9 µM | < 1.3 µM | 4.6 µM | 18.7 µM |  | 
CCN(CC)c1ccc2cc(/C=C/c3ccc4cc(F)c(NCCOCCO)cc4[n+]3C)c(=O)oc2c1 | > 40 µM | 9.8 µM | > 40 µM | > 40 µM |  | 
CCN(CC)c1ccc2cc(/C=C/c3ccc4cc(F)c(NCC5CCOCC5)cc4[n+]3C)c(=O)oc2c1 | 32.4 µM | 10.8 µM | 11.3 µM | > 40 µM |  | 
CCCCN(CCCC)CCCn1cc(CNc2cc3c(cc2F)c(N2CCN(C)CC2)cc(/C=C/c2cc4ccc(N(CC)CC)cc4oc2=O)[n+]3C)nn1 | 8.8 µM | 5.9 µM | > 40 µM | > 40 µM | Active | Active
CCN(CC)c1ccc2cc(/C=C/c3ccc4cc(F)c(NCCN(C(C)C)C(C)C)cc4[n+]3C)c(=O)oc2c1 | 3.4 µM | 1.3 µM | 13 µM | 15 µM |  | 
CCN(CC)c1ccc2cc(/C=C/c3cc(N4CCN(C)CC4)c4cc(F)c(NCc5cn(CCCN6CCOCC6)nn5)cc4[n+]3C)c(=O)oc2c1 | > 40 µM | > 40 µM | > 40 µM | > 40 µM |  | 
CCN(CC)c1ccc2cc(/C=C/c3ccc4cc(F)c(N5CCOCC5)cc4[n+]3C)c(=O)oc2c1 | 13.2 µM | 29.6 µM | > 40 µM | > 40 µM |  | 
CCN(CC)c1ccc2cc(/C=C/c3cc(NCCCn4ccnc4)c4cc(F)c(NCCCn5ccnc5)cc4[n+]3C)c(=O)oc2c1 | > 40 µM | 33.2 µM | > 40 µM | > 40 µM |  | 
CCN(CC)c1ccc2cc(/C=C/c3cc(N4CCN(C)CC4)c4cc(F)c(NCc5cn(CCc6cccs6)nn5)cc4[n+]3C)c(=O)oc2c1 | 19.2 µM | 9 µM | > 40 µM | > 40 µM |  | 
CCN(CC)c1ccc2cc(/C=C/c3cc(N4CCN(C)CC4)c4cc(F)c(NCc5cn(CCCN6CCCCC6)nn5)cc4[n+]3C)c(=O)oc2c1 | > 40 µM | > 40 µM | > 40 µM | > 40 µM |  | 

SMILES | IC50 [1] | IC50 [2] | IC50 [3] | IC50 [4] | inhibition [5] | inhibition [6]
CCN(CC)c1ccc2cc(/C=C/c3ccc4cc(F)c(N5CCN(Cc6cn(CCc7cccs7)nn6)CC5)cc4[n+]3C)c(=O)oc2c1 | 23.8 µM | 6.8 µM | > 40 µM | > 40 µM |  | 
CCN(CC)c1ccc2cc(/C=C/c3cc(N4CCN(C)CC4)c4cc(F)c(N5CCN(C)CC5)cc4[n+]3C)c(=O)oc2c1 | 26.4 µM | 16 µM | > 40 µM | > 40 µM |  | 
CCN(CC)c1ccc2cc(/C=C/c3ccc4cc(F)c(NCCc5cccs5)cc4[n+]3C)c(=O)oc2c1 | < 1.3 µM | < 1.3 µM | < 1.3 µM | 4.4 µM |  | 
CCN(CC)CCCn1cc(CNc2cc3c(cc2F)c(N2CCN(C)CC2)cc(/C=C/c2cc4ccc(N(CC)CC)cc4oc2=O)[n+]3C)nn1 | > 40 µM | > 40 µM | > 40 µM | > 40 µM |  | 
CCN(CC)c1ccc2cc(/C=C/c3cc(NCCN4CCCC4)c4cc(F)c(NCCN5CCCC5)cc4[n+]3C)c(=O)oc2c1 | > 40 µM | 17 µM | > 40 µM | > 40 µM |  | 
CCN(CC)c1ccc2cc(/C=C/c3cc(NCCCN4CCOCC4)c4cc(F)c(NCCCN5CCOCC5)cc4[n+]3C)c(=O)oc2c1 | 29 µM | 4.6 µM | > 40 µM | > 40 µM |  | 
CCN(CC)c1ccc2cc(/C=C/c3ccc4cc(F)c(NCCCn5ccnc5)cc4[n+]3C)c(=O)oc2c1 | > 40 µM | 13.4 µM | > 40 µM | > 40 µM |  | 
CCN(CC)c1ccc2cc(/C=C/c3ccc4cc(F)c(N5CCN(Cc6cn(CCCN(C)C)nn6)CC5)cc4[n+]3C)c(=O)oc2c1 | > 40 µM | > 40 µM | > 40 µM | > 40 µM |  | 
CCN(CC)c1ccc2cc(/C=C/c3cc(N4CCN(C)CC4)c4cc(F)c(NCc5cn(CCCN6CCCC6)nn5)cc4[n+]3C)c(=O)oc2c1 | > 40 µM | > 40 µM | > 40 µM | > 40 µM |  | 
CCN(CC)c1ccc2cc(/C=C/c3cc(N4CCN(C)CC4)c4cc(F)c(NCc5cn(CCC(=O)OC)nn5)cc4[n+]3C)c(=O)oc2c1 | > 40 µM | > 40 µM | > 40 µM | > 40 µM |  | 
CCCCN(CCCC)CCCn1cc(CN2CCN(c3cc4c(ccc(/C=C/c5cc6ccc(N(CC)CC)cc6oc5=O)[n+]4C)cc3F)CC2)nn1 | 26 µM | 7 µM | > 40 µM | > 40 µM |  | 
CCN(CC)c1ccc2cc(/C=C/c3cc(NCCCN4CCCC4)c4cc(F)c(NCCCN5CCCC5)cc4[n+]3C)c(=O)oc2c1 | > 40 µM | > 40 µM | > 40 µM | > 40 µM |  | 
CCN(CC)c1ccc2cc(/C=C/c3ccc4cc(F)c(NCCCOC(C)C)cc4[n+]3C)c(=O)oc2c1 | 2.9 µM | 1.5 µM | 6 µM | 23.2 µM |  | 
CCN(CC)c1ccc(Nc2cc3c(ccc(/C=C/c4cc5ccc(N(CC)CC)cc5oc4=O)[n+]3C)cc2F)cc1 | < 1.3 µM | < 13 µM | < 1.3 µM | < 1.3 µM |  | 
CCN(CC)c1ccc2cc(/C=C/c3cc(N4CCN(C)CC4)c4cc(F)c(NCc5cn(CCC(=O)O)nn5)cc4[n+]3C)c(=O)oc2c1 | > 40 µM | > 40 µM | > 40 µM | > 40 µM |  | 
CCN(CC)c1ccc2cc(/C=C/c3ccc4cc(F)c(NCc5ccccc5C(F)(F)F)cc4[n+]3C)c(=O)oc2c1 | 7 µM | < 1.3 µM | 3 µM | 12.2 µM |  | 
CCN(CC)c1ccc2cc(/C=C/c3ccc4cc(F)c(NCCc5nc6ccccc6[nH]5)cc4[n+]3C)c(=O)oc2c1 | 19.2 µM | 4 µM | > 40 µM | > 40 µM |  | 
CCN(CC)c1ccc2cc(/C=C/c3ccc4cc(F)c(Nc5ccc6nc(C)[nH]c6c5)cc4[n+]3C)c(=O)oc2c1 | 13 µM | 12 µM | > 40 µM | 14.8 µM |  | 
CCN(CC)c1ccc2cc(/C=C/c3ccc4cc(F)c(N5CCN(Cc6cn(CCCO)nn6)CC5)cc4[n+]3C)c(=O)oc2c1 | > 40 µM | > 40 µM | > 40 µM | > 40 µM |  | 
CCN(CC)CCCn1cc(CN2CCN(c3cc4c(ccc(/C=C/c5cc6ccc(N(CC)CC)cc6oc5=O)[n+]4C)cc3F)CC2)nn1 | > 40 µM | > 40 µM | > 40 µM | > 40 µM |  | 
CCN(CC)c1ccc2cc(/C=C/c3ccc4cc(F)c(N5CCN(Cc6cn(CCCN7CCCCC7)nn6)CC5)cc4[n+]3C)c(=O)oc2c1 | > 40 µM | 26.8 µM | > 40 µM | > 40 µM |  | 
CCN(CC)c1ccc2cc(/C=C/c3ccc4cc(F)c(N5CCN(Cc6cn(CCC(=O)O)nn6)CC5)cc4[n+]3C)c(=O)oc2c1 | > 40 µM | 12.6 µM | > 40 µM | > 40 µM |  | 
